Measurements taken from patent US20230028441A1, “NOVEL HETEROARYL-TRIAZOLE COMPOUNDS AS PESTICIDES” (Bayer Aktiengesellschaft, priority 2019, published 2023).

What was measured:
Type in all cases: in vivo
[1] = system: Blattella germanica strain PAULINIA; test: Blattella germanica test (BLTTGE surface treatment & contact assay); settings: 24 hours after contact, read-out: efficacy (mortality)
Experimental: (§1) Solvent: Aceton+2000 ppm rapeseed oil methyl ester (RME)
(§2) In order to produce a sufficient, active ingredient containing solution it is necessary to solve the test compound in the solvent-mix (acetone at 2 mg/ml/RME 2000 ppm). This solution is pipetted onto a glazed tile and after evaporation of the acetone, adult animals of the species Blattella germanica strain PAULINIA are placed onto the dried surface. The exposure time is 30 minutes.
(§3) Mortality in percent (%) is determined 24 hours after contact of the insects to the treated surface. 100% mortality means that all tested insects are dead, whereas 0% means that no insect died.

[2] = system: adult brown dog ticks (Rhipicephalus sanguineus); test: Rhipicephalus sanguineus in-vitro contact test with adult brown dog ticks; settings: after 48 hours, read-out: efficacy (ticks dead or moribund); for pest or weed control at 1 µg/cm2, 100 g/ha: 1 μg/cm^2 (=100 g/ha); for pest or weed control at 5 µg/cm2, 500 g/ha: 5 μg/cm^2 (=500 g/ha)
In short: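 Efficacy is the percentage of adult ticks dead or moribund, meaning immotile or uncoordinated and unable to escape 45-50° C. heat within 5 min. Read 48 h after 5-10 ticks were enclosed at room temperature in acetone-coated glass tubes. Dose 5 μg/cm^2, from a 900 ppm coating solution.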

[3] = system: green peach aphid (Myzus persicae); test: Myzus persicae spray test; settings: foliar, 120 h, 100 g/ha, after 5 days, Chinese cabbage leaf disks
In short: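 Chinese cabbage leaf disks carrying all instars of Myzus persicae were sprayed with compound. The formulation was acetone/dimethylformamide diluted in water with 1000 ppm alkylarylpolyglycol ether emulsifier. Percent mortality was scored after 5 days, with 100% meaning all aphids killed.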

[4] = system: Anopheles funestus strain FUMOZ-R; test: Anopheles funestus test (ANPHFU surface treatment & contact assay); settings: 24 hours after contact, read-out: efficacy (mortality)
Experimental: as §1
as §2, with “mosquitoes” for “animals”, “Anopheles funestus” for “Blattella germanica”, “FUMOZ-R (Hunt et al., Med. Vet. Entomol. 2005 September; 19(3): 271-275)” for “PAULINIA”
as §3

[5] = system: cattle ticks (Rhipicephalus microplus) strain Parkhurst, SP-resistant; test: Rhipicephalus (Boophilus) microplus dip test; settings: 100 ppm, egg deposition after 7 days
Experimental: Test animal: cattle ticks (Rhipicephalus microplus) strain Parkhurst, SP-resistant
Solvent: dimethyl sulfoxide
To produce a suitable preparation of active compound, 10 mg of active compound are dissolved in 0.5 mL solvent, and the concentrate is diluted with water to the desired concentration.
This compound solution is pipetted into tubes. 8-10 engorged, adult, female cattle ticks (Rhipicephalus microplus) are placed in perforated tubes. These tubes are immersed in the aqueous compound solution until the ticks are completely moistened. After the liquid has drained off, the ticks are transferred to a filter paper in a plastic tray and stored in a climate chamber.
After 7 days egg deposition of fertile eggs is monitored. Eggs where fertility is not visible are stored in a climate chamber till hatching after about 42 days. An efficacy of 100% means all eggs are infertile; 0% means all eggs are fertile.

[6] = system: larvae of the southern green stink bug (Nezara viridula); test: Nezara viridula spray test; settings: in Hordeum vulgare, 96 h
In short: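 Percent mortality of southern green stink bug larvae read 4 days after spraying infested Hordeum vulgare. Test solutions: compound in acetone plus dimethylformamide, diluted with emulsifier-containing water (1000 ppm alkylarylpolyglycol ether).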

[7] = system: green peach aphid (Myzus persicae); test: Myzus persicae oral test; settings: 120 h
In short: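 Aphids of mixed population ingest the compound preparation by sucking through a parafilm sheet stretched over wells holding test solution plus IPL41 insect medium (33%+15% sugar). Kill rate in percent is determined five days later.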

[8] = system: caterpillars of the fall army worm (Spodoptera frugiperda); test: Spodoptera frugiperda spray test (cotton leaves); settings: 168 h
In short: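 Cotton leaves sprayed with compound in water/DMF with 1000 ppm alkylaryl polyglycol ether emulsifier, ammonium salt and/or penetration enhancer at 1000 ppm added if necessary, then infested with fall armyworm caterpillars. Mortality in % scored after 7 days; 100% means all caterpillars killed.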

[9] = surface concentration 4 mg/m^2, 30 minutes exposure
[10] = surface concentration 20 mg/m^2, 30 minutes exposure

| Structure (SMILES) | mortality at 4 mg/m2 [1, 9] [%] | mortality at 20 mg/m2 [1, 10] [%] | pest or weed control at 1 µg/cm2, 100 g/ha [2] [%] | pest or weed control at 5 µg/cm2, 500 g/ha [2] [%] | mortality at 100 g/ha [3] [%] | mortality at 4 mg/m2 [4, 9] [%] | mortality at 20 mg/m2 [4, 10] [%] | efficacy (infertile eggs) [5] [%] | mortality at 100 g/ha [6] [%] | mortality at 4 ppm [7] [%] | mortality at 20 ppm [8] [%] | mortality at 500 g/ha [6] [%] |
| --- | --- | --- | --- | --- | --- | --- | --- | --- | --- | --- | --- | --- |
| CNc1nc(C(C)NC(=O)c2cc(C(F)(F)F)cc(C(F)(F)F)c2)n(-c2ncccn2)n1 (stereo not shown) [I-088] | 90 to 100 | 90 to 100 | 100 | 100 | 100 | 90 to 100 | 90 to 100 | 100 | 100 | 100 | – | – |
| CC(NC(=O)c1cc(Cl)cc(C(F)(F)F)c1)c1nc(N)nn1-c1ccc(Cl)cn1 (racemic) [I-006, N-[1-[5-amino-2-(5-chloro-2-pyridyl)-1,2,4-triazol-3-yl]ethyl]-3-chloro-5-(trifluoromethyl)benzamide] | – | – | 80 | 100 | – | – | – | – | 100 | 100 | 100 | 100 |
